From publication PMC12113707, “Microwave Assisted Synthesis of Antioxidant Dihydro-Pyrazole Hybrids as Possible Lipoxygenase Inhibitors” (Molecules, 2025)

Experiments:
[1] = Interaction with the stable free radical DPPH (reducing activity); details: 517 nm
Procedure: In general, the compounds present moderate to good antioxidant activity. It seems that the dibenzylacetones present satisfactory antioxidant activity compared to the hybrids at 60 min (1b, 1d and 1f).
The tested compounds (0.1 mM final concentration) dissolved in DMSO were incubated with a solution of DPPH in absolute ethanol in absence of light. The absorbance at 20 and 60 min at 517 nm was recorded at room temperature. NDGA was used as the reference compound.

[2] = Inhibition of AAPH-induced linoleic acid peroxidation; details: 37 °C, 234 nm
Procedure: The ability of the compounds to inhibit AAPH-induced peroxidation of linoleic acid is another assay to investigate the antioxidant properties of the compounds. Azo compounds such as 2,2′-azobis dihydrochloride (2-amidinopropane) (AAPH) are capable of generating free radicals through spontaneous decomposition at 37 °C. The R- radicals react immediately with air-oxygen to produce peroxy radicals. AAPH was therefore used as the radical initiator and sodium linoleate as substrate subjected to peroxidation. Measurements were carried out at 234 nm using a UV/V is spectrophotometer. Dichalcone 1i substituted with two phenyl groups presents the lowest lipophilicity. […] Therefore, hydrophilic substituents offer an increase in activity.
The interaction of free radicals with cell membrane lipids induces free radical chain reactions, a process called lipid peroxidation. 930 μL of a phosphate buffer solution (0.05 M, pH = 7.4), 10 μL of the sodium linolate solution (16 mM in a buffer solution of Tris-HCl pH = 9) and 10 μL of the tested compounds (stock solutions 100 μΜ) were mixed and the oxidative procedure started after the addition of 50 μL AAPH at 37 °C under air conditions. The conjugated diene’s absorbance was measured at 234 nm at a thermostable spectrophotometer (37 °C) according to previous publication.

[3] = Experimental lipophilicity RM by reverse phase thin layer chromatography (RP-TLC); type: physicochemical; details: methanol-water mobile phase
Procedure: Lipophilicity is a main physicochemical parameter for bioactive molecules, linking solubility, ligand-target binding interactions, membrane permeability absorption, distribution, bioavailability, metabolism, elimination and toxicological effects (ADMET), playing an important role in biological activity. The experimental values of lipophilicity RM were determined by reverse phase thin layer chromatography. For the experimental determination of lipophilicity the hydrophilic-lipid phase system is a mixture of methanol- water (90/10%). The theoretical lipophilicity values are determined by the Bioloom program (http://biobyte.com/bb/prod/bioloom.html, accessed on 8 April 2024) (Table 1). According to the calculated clog P values, the most lipophilic compounds are 3c, 3d and 3f while the less lipophilic ones are compounds 5a and 5b.
Melting points were determined on a MEL-Temp II (Lab. Devices, Holliston, MA, USA). In vitro tests were carried out using a UV-Vis spectra and recorded on a Perkin-Elmer 554 double-beam spectrophotometer (Perkin-Elmer Corporation Ltd., Lane Beaconsfield, Bucks, UK). Infrared spectra (KBr pellets) were recorded with Perkin-Elmer 597 spectrophotometer (Perkin-Elmer Corporation Ltd., Lane Beaconsfield, Bucks, UK). The ^1H […] Magnetic Resonance (^1H-NMR) spectra were acquired on an Agilent 500/54 (DD2) at 500 MHz in CDCl3 using tetramethylsilane as an internal standard. Agilent 500/54 (DD2) ^13C NMR spectra were acquired at 125 MHz in CDCl3 solutions with tetramethylsilane serving as an internal reference. Coupling constants J are expressed in Hz, and chemical shifts are reported in ppm. Thermo Fisher Scientific Inc., Waltham, MA, USA, used MeOH as the solvent to calculate mass spectra using an LC-PDA-MS Thermo Finnigan system (LC Pump Plus, Autosampler, Surveyor PDA Plus Detector) interfaced with an ESI MSQ Plus (Thermo Finnigan). Thin-layer chromatography using 5554 F254 Silica gel/TLC cards (Merck and Fluka Chemie GmbH Buchs, Steinheim, Switzerland) was used to monitor the reaction progress. Silica gel 60 F254 plates with a diameter of 2 mm were utilized for preparative thin layer chromatography (prep TLC) by Merck KgaA (ICH078057). Merck (20 × 20 cm) plates were used for the experimental assessment of the lipophilicity using reverse phase thin-layer chromatography (RP-TLC) TLC-Silica gel 60 F254 DC Kieselgel.
In this experiment, TLC silica gel 60 F254 1.05715.0001 commercial glass plates from Merck were used. The plates were first immersed in a 5% v/v solution of liquid paraffin in petroleum ether and left for 90 s to become completely impregnated with the stable lipophilic phase. They were then activated by standing for 30 min in an oven at 40 °C and kept there until the time of use. A 70% v/v MeOH/H2O mixture was used as the mobile phase. The mobile phase was saturated with a few drops of liquid paraffin before being used. The spots of the compounds were placed on the plate at a distance of 2 cm from the edges of the plate and also from each other. The development of the spots on the plates was carried out in closed chromatography chambers where the atmosphere is saturated with the mobile phase at room temperature. At the end of development, the solvent-formed front was marked and the plates are dried at 80 °C for about 20–30 min. The appearance of the spots was made under an ultraviolet light lamp. The Rf values were the average of 5–6 measurements for each compound and assuming that the compounds will have been rotated to different positions on the plates. The RM values were calculated from the corresponding Rf values according to the equation [67].RM = log [(1/Rf) − 1](1)

[4] = molecular target: T1, soybean lipoxygenase (SLOX-1) (Glycine max, UniProt P08170); experiment: Inhibition of soybean lipoxygenase in vitro; type: biochemical; details: pH 9, sodium linoleate substrate; for inhibition at 100 µM: read-out: LOX% Inhibition, 100 μM (±SD); for IC50: read-out: LOX IC50 (μM) (±SD)
T1 construct: 200 μL of plant-derived lipoxygenase solution (1:9 × 10^−4 w/v, in saline); purchased Sigma Chemical, Co; host or cells: soybean (plant-derived)
T1 sequence (P08170 1-839): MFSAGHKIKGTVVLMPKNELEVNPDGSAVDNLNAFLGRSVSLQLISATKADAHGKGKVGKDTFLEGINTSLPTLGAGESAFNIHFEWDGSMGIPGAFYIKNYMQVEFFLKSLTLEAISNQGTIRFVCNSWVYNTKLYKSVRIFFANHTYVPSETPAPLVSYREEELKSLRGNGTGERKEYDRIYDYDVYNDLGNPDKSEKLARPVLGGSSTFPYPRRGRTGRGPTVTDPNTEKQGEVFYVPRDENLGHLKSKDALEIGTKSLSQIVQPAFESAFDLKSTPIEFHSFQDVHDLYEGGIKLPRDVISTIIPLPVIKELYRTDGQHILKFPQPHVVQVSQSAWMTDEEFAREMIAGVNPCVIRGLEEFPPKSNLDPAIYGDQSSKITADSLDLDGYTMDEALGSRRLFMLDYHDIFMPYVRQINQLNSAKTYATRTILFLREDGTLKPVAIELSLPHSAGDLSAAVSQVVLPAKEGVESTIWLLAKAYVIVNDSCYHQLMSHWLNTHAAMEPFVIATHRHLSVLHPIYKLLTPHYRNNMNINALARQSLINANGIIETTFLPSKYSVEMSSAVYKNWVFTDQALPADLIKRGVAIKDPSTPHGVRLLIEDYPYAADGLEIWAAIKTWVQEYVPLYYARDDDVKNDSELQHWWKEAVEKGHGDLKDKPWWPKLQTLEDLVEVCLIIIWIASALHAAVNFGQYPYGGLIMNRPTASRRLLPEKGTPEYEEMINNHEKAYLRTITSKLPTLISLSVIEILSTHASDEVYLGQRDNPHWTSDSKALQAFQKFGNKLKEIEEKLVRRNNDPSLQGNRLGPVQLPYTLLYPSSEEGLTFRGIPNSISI
Procedure: Soybean lipoxygenase SLOX-1 at pH 9 is used in vitro. During this assay linoleic acid sodium salt is converted to the corresponding 13-hydroperoxide. The reaction is recorded photometrically at 234 nm using the UV-based enzyme assay. […] It is known that soybean LOX inhibitory activity induced by NSAIDs is qualitatively quite similar to the inhibition observed on the rat mast cells LOX and this assay may be used as a qualitative or semi-quantitative screen for such activity.
To a quartz cell, add 790 μL of Tris-HCl pH = 9.0 buffer, 200 μL of plant-derived lipoxygenase solution (1:9 × 10^−4 w/v, in saline), 10 μL of the test compound solution and 100 μL of sodium linoleate solution (3 mM concentration). The absorbance was measured at 234 nm, where the change in absorbance due to the conversion of linoleic acid to […] was recorded. A solution of 790 μL of Tris-HCl pH = 9.0 buffer, 200 μL of a plant-derived lipoxygenase solution (1:9 × 10^−4 w/v, in saline), 10 μL of DMSO and 100 μL of sodium linoleate solution (3 mM concentration) was used as a control.

Row | SMILES | RA%, 100 μM, 60 min (±SD) [1] | AAPH% Inhibition, 100 μM (±SD) [2] | RM ± SD [3] | inhibition at 100 µM [4] | RA%, 100 μM, 20 min (±SD) [1] | IC50 [4]
1 | CN(C)c1ccc(/C=C/C(=O)/C=C/c2ccc(N(C)C)cc2)cc1 [Compound 1e, (1E,4E)-1,5-bis(4-dimethylaminophenyl)-1,4-pentadien-3-one] | 100 ± 8.7% | 50 ± 0.5% | −0.14 ± 0.009 | 24 ± 0.6% |  | 
2 | O=C(/C=C/c1ccc(C(F)(F)F)cc1)/C=C/c1ccc(C(F)(F)F)cc1 [Compound 1f, (1E,4E)-1,5-bis(4-(trifluoromethyl)phenyl)-1,4-pentadien-3-one] | 26 ± 0.9% | 32 ± 1.4% | 0.57 ± 0.031 | 24 ± 1.4% | 13 ± 0.8% | 
3 | C(=C\c1ccccc1)/C1=NN(c2ccccc2)C(c2ccccc2)C1 (stereo not drawn) [Compound 2a, (E)-1,5-Diphenyl-3-styryl-4,5-dihydro-1H-pyrazole] | 17 ± 1.2% | 44 ± 0.7% | 1.00 ± 0.084 | 42 ± 2.4% |  | 
4 | Fc1ccc(/C=C/C2=NN(c3ccccc3)C(c3ccc(F)cc3)C2)cc1 (stereo not drawn) [Compound 2b] | 15 ± 0.6% | 39 ± 0.3% | 0.78 ± 0.065 | 24 ± 1.9% | 2 ± 0.1% | 
5 | Clc1ccc(/C=C/C2=NN(c3ccccc3)C(c3ccc(Cl)cc3)C2)cc1 (stereo not drawn) [Compound 2d] |  | 75 ± 0.1% | 1.07 ± 0.067 |  | 6 ± 0.4% | 2.5 µM
6 | CN(C)c1ccc(/C=C/C2=NN(c3ccccc3)C(c3ccc(N(C)C)cc3)C2)cc1 (stereo not drawn) [Compound 2e] | 45 ± 1% | 78 ± 0.4% | 0.95 ± 0.092 |  | 24 ± 0.9% | 0.35 µM
7 | FC(F)(F)c1ccc(/C=C/C2=NN(c3ccccc3)C(c3ccc(C(F)(F)F)cc3)C2)cc1 (stereo not drawn) [Compound 2f] |  | 52 ± 2.5% | 1.31 ± 0.031 | 14 ± 0.8% | 5 ± 0.2% | 
8 | Brc1ccc(N2N=C(/C=C/c3ccccc3)CC2c2ccccc2)cc1 (stereo not drawn) [Compound 3a, (E)-1-(4-bromophenyl)-5-phenyl-3-styryl-4,5-dihydro-1H-pyrazole] | 22 ± 0.9% | 75 ± 1.4% | 1.11 ± 0.068 | 51 ± 2.2% | 10 ± 0.3% | 
9 | Fc1ccc(/C=C/C2=NN(c3ccc(Br)cc3)C(c3ccc(F)cc3)C2)cc1 (stereo not drawn) [Compound 3b] | 6 ± 0.6% | 63 ± 2.6% | 1.03 ± 0.057 | 17 ± 0.8% | 2 ± 0.1% | 
10 | Brc1ccc(/C=C/C2=NN(c3ccc(Br)cc3)C(c3ccc(Br)cc3)C2)cc1 (stereo not drawn) [Compound 3c] | 24 ± 0.9% | 40 ± 1.8% | 1.46 ± 0.049 |  | 2 ± 0.1% | 30 µM
11 | Clc1ccc(/C=C/C2=NN(c3ccc(Br)cc3)C(c3ccc(Cl)cc3)C2)cc1 (stereo not drawn) [Compound 3d, (E)-1-(4-bromo-phenyl)-5-(4-chloro-phenyl)-3-(4-chlorostyryl)-4,5-dihydro-1H-pyrazole] |  | 52 ± 2.5% | 1.39 ± 0.069 | 11 ± 0.8% | 6 ± 0.5% | 
12 | CN(C)c1ccc(/C=C/C2=NN(c3ccc(Br)cc3)C(c3ccc(N(C)C)cc3)C2)cc1 (stereo not drawn) [Compound 3e] | 53 ± 0.9% | 80 ± 2.9% | 1.25 ± 0.086 |  | 30 ± 0.9% | 20 µM
13 | FC(F)(F)c1ccc(/C=C/C2=NN(c3ccc(Br)cc3)C(c3ccc(C(F)(F)F)cc3)C2)cc1 (stereo not drawn) [Compound 3f] | 14 ± 1.2% | 75 ± 2.7% | 1.47 ± 0.044 | 38 ± 2.6% | 5 ± 0.4% | 
